A value given as a limit tells only on which side of the number the result lay.

The test system of the test is YAP-TEAD. In words: TEAD inhibition, Hippo Pathway TEAD Reporter MCF-7 luciferase assay. It is filed as cell-based. The conditions noted are these: Homo sapiens, MCF7, 24 h, Hippo Pathway TEAD Reporter MCF-7 cells, luciferase activity after 24 h; read-out: IC50 of the test compounds on YAP-TEAD inhibition (Group). Here is the method:
TEAD inhibition was assayed using Hippo Pathway TEAD Reporter—MCF-7 cell line (BPS Bioscience, Catalog #: 60618) which contains firefly luciferase gene under the control of TEAD responsive elements. In the cell line, YAP1 remains in the nucleus inducing constitutive expression of luciferase reporter. Amount of expressed luciferase was detected using ONE-Glo Luciferase Assay System (Promega) and measuring plates with Enspire Multimode Plate Reader (PerkinElmer).
Hippo Pathway TEAD Reporter—MCF-7 cells were plated on white/clear Poly-D-Lysine coated 384 plates (Corning #356660) at the density of 8500 cells/well. Next day test compounds (11 concentrations with 4 replicates) and DMSO control (0.1%) were added to the plate. After 24 h cells were lysed and luciferase activity was measured. The half maximal inhibitory concentration (IC50) of the test compounds on YAP-TEAD inhibition was determined.
By IC50 is commonly meant the midpoint of a concentration-inhibition curve. Consider `COc1ccc(COc2cccc(F)c2)cc1NC(=O)[C@H]1NC(=O)C[C@@H]1C` (racemic) [Compound 6, rac-(trans)-N-(5-((3-Fluorophenoxy)methyl)-2-methoxyphenyl)-3-methyl-5-oxopyrrolidine-2-carboxamide], for which the IC50 lay within 301 to 2000 nM. For `COc1ccc(COc2cccc(F)c2)cc1NC(=O)[C@H]1NC(=O)C[C@H]1C` (racemic) [Compound 20, rac-(cis)-N-(5-((3-Fluorophenoxy)methyl)-2-methoxyphenyl)-3-methyl-5-oxo-pyrrolidine-2-carboxamide] the value was 301 to 2000 nM. `COc1ccc(Oc2cccc(C(F)(F)F)c2)cc1NC(=O)[C@@H]1CCC(=O)N1C(C)=O` (stereo in doubt) [Compound 30, 1-Acetyl-N-(2-methoxy-5-(3-(trifluoromethyl)phenoxy)phenyl)-5-oxo-pyrrolidine-2-carboxamide]: the IC50 was in the range of 50 to 300 nM. Turning to `COc1ccc(Oc2ccc(C(F)(F)F)cc2)cc1NC(=O)[C@H]1CCC(=O)N1` (stereo in doubt) [Compound 45, N-(2-Methoxy-5-(4-(trifluoromethyl)phenoxy)phenyl)-5-oxopyrrolidine-2-carboxamide], the IC50 was less than 50 nM.

For the molecule `COc1ccc(Oc2ccc(C(F)(F)F)cc2)cc1NC(=O)[C@@H]1CCC(=O)N1` (stereo in doubt) [Compound 46, N-(2-Methoxy-5-(4-(trifluoromethyl)phenoxy)phenyl)-5-oxopyrrolidine-2-carboxamide], the IC50 lay in the range of 301 to 2000 nM. Then `COc1cc(NC(=O)C2CCC(=O)N2C)cc(OC2CCC(F)(F)CC2)c1` (stereo in doubt) [Compound 275, (R)—N-(3-((4,4-Difluorocyclohexyl)oxy)-5-methoxyphenyl)-1-methyl-5-oxo-pyrrolidine-2-carboxamide], with 50 to 300 nM; and `COc1ccc(Oc2ccc(C(F)(F)F)cc2)cc1NC(=O)C1CCC(=O)N1` (stereo not drawn) [Compound 1, N-(2-Methoxy-5-(4-(trifluoromethyl)phenoxy)phenyl)-5-oxo-pyrrolidine-2-carboxamide], with less than 50 nM; and `COc1ccc(Oc2cccc(F)c2)cc1NC(=O)C1CCC(=O)N1C(C)=O` (stereo not drawn) [Compound 2, 1-Acetyl-N-(5-(3-fluorophenoxy)-2-methoxyphenyl)-5-oxopyrrolidine-2-carboxamide], with 301 to 2000 nM. Then `COc1ccc(COc2cccc(F)c2)cc1NC(=O)C1CCC(=O)N1C(C)=O` (stereo not drawn) [Compound 3, 1-Acetyl-N-(5-((3-fluorophenoxy)methyl)-2-methoxyphenyl)-5-oxopyrrolidine-2-carboxamide], with 301 to 2000 nM; and `COc1cc(OC)c(NC(=O)C2CCC(=O)N2)cc1COc1cccc(F)c1` (stereo not drawn) [Compound 4, N-(5-((3-Fluorophenoxy)methyl)-2,4-dimethoxyphenyl)-5-oxopyrrolidine-2-carboxamide], with 301 to 2000 nM; and `COc1ccc(COc2cccc(F)c2)cc1NC(=O)C1CN(CCF)C1` [Compound 5, 1-(2-Fluoroethyl)-N-(5-((3-fluorophenoxy)methyl)-2-methoxyphenyl)azetidine-3-carboxamide], with 301 to 2000 nM. Then `O=C1CC(C(=O)Nc2cccc(Oc3cccc(C(F)(F)F)c3)c2)N1` (stereo not drawn) [Compound 7, 4-Oxo-N-(3-(3-(trifluoromethyl)phenoxy)phenyl)azetidine-2-carboxamide], with 301 to 2000 nM.

In the case of `COc1ccc(Oc2cccc(C(F)(F)F)c2)cc1NC(=O)C1CC(=O)N1` (stereo not drawn) [Compound 8, N-(2-Methoxy-5-(3-(trifluoromethyl)phenoxy)phenyl)-4-oxoazetidine-2-carboxamide], the IC50 lay in the range of 50 to 300 nM.

In the case of `COc1ccc(Oc2cccc(C(F)(F)F)c2)cc1NC(=O)CC1CCC(=O)N1` (stereo not drawn) [Compound 9, N-(2-Methoxy-5-(3-(trifluoromethyl)phenoxy)phenyl)-2-(5-oxopyrrolidin-2-yl)acetamide], the IC50 is 301 to 2000 nM. In the case of `COc1ccc(Oc2cccc(C(F)(F)F)c2)cc1NC(=O)C1CCC(=O)N1` (stereo not drawn) [Compound 10, N-(2-Methoxy-5-(3-(trifluoromethyl)phenoxy)phenyl)-5-oxopyrrolidine-2-carboxamide], the IC50 lay in the range of 50 to 300 nM. For `COc1ccc(Oc2cccc(C(F)(F)F)c2)cc1NC(=O)C1CCC(=O)N1C` (stereo not drawn) [Compound 11, N-(2-Methoxy-5-(3-(trifluoromethyl)phenoxy)phenyl)-1-methyl-5-oxopyrro-lidine-2-carboxamide] the value was 50 to 300 nM; for `COc1ccc(Oc2cccc(C(F)(F)F)c2)cc1NC(=O)C1CCS(=O)(=O)C1` (stereo not drawn) [Compound 12, N-(2-Methoxy-5-(3-(trifluoromethyl)phenoxy)phenyl)tetrahydrothiophene-3-carboxamide 1,1-dioxide], 301 to 2000 nM; for `COc1ccc(COc2cccc(F)c2)cc1NC(=O)C1CCS(=O)(=O)N1C` (stereo not drawn) [Compound 13, N-(5-((3-Fluorophenoxy)methyl)-2-methoxyphenyl)-2-methylisothiazolidine-3-carboxamide 1,1-dioxide], 301 to 2000 nM.

Regarding `COc1ccc(Oc2cccc(C(F)(F)F)c2)cc1NC(=O)C1(C)CCC(=O)N1` (stereo not drawn) [Compound 14, N-(2-Methoxy-5-(3-(trifluoromethyl)phenoxy)phenyl)-2-methyl-5-oxopyrrolidi-ne-2-carboxamide], the IC50 is 301 to 2000 nM.

As for `COc1ccc(Oc2cccc(F)c2)cc1NC(=O)C1(C)CCC(=O)N1` (stereo not drawn) [Compound 15, N-(5-(3-Fluorophenoxy)-2-methoxyphenyl)-2-methyl-5-oxopyrrolidine-2-carboxamide], the IC50 is 301 to 2000 nM.

With `O=C1CCC(C(=O)Nc2cccc(Oc3cccc(C(F)(F)F)c3)c2)N1` (stereo not drawn) [Compound 16, 5-Oxo-N-(3-(3-(trifluoromethyl)phenoxy)phenyl) pyrrolidine-2-carboxamide], the IC50 is 301 to 2000 nM. For `O=C1CCC(C(=O)Nc2cc(COc3cccc(F)c3)cc3ccoc23)N1` (stereo not drawn) [Compound 17, N-(5-((3-Fluorophenoxy)methyl)benzofuran-7-yl)-5-oxopyrrolidine-2-carboxamide] the value was 50 to 300 nM; for `COc1ccc(Oc2cccc(F)c2)cc1NC(=O)C12CCC(=O)N1CCS2` (stereo not drawn) [Compound 18, N-(5-(3-Fluorophenoxy)-2-methoxyphenyl)-5-oxotetrahydropyrrolo[2,1-b]-thiazole-7a(5H)-carboxamide], 50 to 300 nM; for `COc1ccc(Oc2cccc(C(F)(F)F)c2)cc1NC(=O)C12CCC(=O)N1CCS2` (stereo not drawn) [Compound 19, N-(2-Methoxy-5-(3-(trifluoromethyl)phenoxy)phenyl)-5-oxotetrahydropyrrolo[2,1-b]thiazole-7a(5H)-carboxamide], 50 to 300 nM.

Regarding `COc1ccc(/C=C/C2CCC(F)(F)CC2)cc1NC(=O)C1CCC(=O)N1` (stereo not drawn) [Compound 21, (E)-N-(5-(2-(4,4-Difluorocyclohexyl)vinyl)-2-methoxyphenyl)-5-oxopyrroli-dine-2-carboxamide], the half-maximal inhibitory concentration (IC50) was less than 50 nM.

Regarding `COc1ccc(/C=C/C2CCC(F)(F)CC2)cc1NC(=O)C1CCC(=O)N1C` (stereo not drawn) [Compound 22, (E)-N-(5-(2-(4,4-Difluorocyclohexyl)vinyl)-2-methoxyphenyl)-1-methyl-5-oxo-pyrrolidine-2-carboxamide], the IC50 is less than 50 nM. With `COc1ccc(/C=C/C2CCC(F)(F)CC2)cc1NC(=O)[C@H]1CCC(=O)N1C` [Compound 23], the IC50 is less than 50 nM. On to `COc1ccc(/C=C/C2CCC(F)(F)CC2)cc1NC(=O)[C@@H]1CCC(=O)N1C` [Compound 24], for which the IC50 fell in the range of 50 to 300 nM. For `COc1ccc(Oc2cccc(F)c2)cc1NC(=O)[C@H]1CCC(=O)N1` [Compound 25, (R)—N-(5-(3-Fluorophenoxy)-2-methoxyphenyl)-5-oxopyrrolidine-2-carboxamide] the value was 50 to 300 nM; for `COc1ccc(COc2cccc(F)c2)cc1NC(=O)C1(C)CCNC1=O` (stereo not drawn) [Compound 26, N-(5-((3-Fluorophenoxy)methyl)-2-methoxyphenyl)-3-methyl-2-oxopyrrolidine-3-carboxamide], 301 to 2000 nM.

Regarding `O=C1CCC(C(=O)Nc2cc(COc3cccc(F)c3)cc3c2OCO3)N1` (stereo not drawn) [Compound 27, N-(6-((3-Fluorophenoxy)methyl)benzo[d][1,3]dioxol-4-yl)-5-oxopyrrolidine-2-carboxamide], the IC50 was in the range of 50 to 300 nM. For `CN1C(=O)CCC1C(=O)Nc1cc(Oc2cccc(C(F)(F)F)c2)cc2ccoc12` (stereo not drawn) [Compound 28, 1-Methyl-5-oxo-N-(5-(3-(trifluoromethyl)phenoxy)benzofuran-7-yl)pyrrolidine-2-carboxamide] the value was less than 50 nM; for `COc1ccc(Oc2cccc(C(F)(F)F)c2)cc1NC(=O)C1CCC(=O)N1C(C)=O` (stereo not drawn) [Compound 29, 1-Acetyl-N-(2-methoxy-5-(3-(trifluoromethyl)phenoxy)phenyl)-5-oxo-pyrrolidine-2-carboxamide], 50 to 300 nM. Then `O=C1CCC(C(=O)Nc2cc(COc3cccc(F)c3)cc3c2OCC3)N1` (stereo not drawn) [Compound 31, N-(5-((3-Fluorophenoxy)methyl)-2,3-dihydrobenzofuran-7-yl)-5-oxopyrrolidine-2-carboxamide], with 301 to 2000 nM. For `CN1C(=O)CCC1C(=O)Nc1cc(COc2cccc(F)c2)cc2c1OCC2` (stereo not drawn) [Compound 32, N-(5-((3-Fluorophenoxy)methyl)-2,3-dihydrobenzofuran-7-yl)-1-methyl-5-oxo-pyrrolidine-2-carboxamide] the value was 50 to 300 nM; for `O=C1CCC(C(=O)Nc2cc(Oc3cccc(C(F)(F)F)c3)cc3c2OCO3)N1` (stereo not drawn) [Compound 33, 5-Oxo-N-(6-(3-(trifluoromethyl)phenoxy)benzo[d][1,3]dioxol-4-yl)pyrrolidine-2-carboxamide], less than 50 nM.
